According to patent US8334315B2, “Substituted aromatic carboxamide and urea derivatives as vanilloid receptor ligands” (Gruenenthal GmbH, priority 2009, dated 2012):

Legend:
NMRI mice = assay: Neuropathic pain in mice, Bennett model (chronic constriction injury, cold allodynia) (CClm); format: in vivo
Method: VI. Neuropathic Pain in Mice
Efficacy in […] pain was tested using the Bennett model (chronic constriction injury; Bennett and Xie, 1988, Pain 33: 87-107).
Three loose ligatures are tied around the right ischiadic nerve of Ketavet/Rompun-anaesthetised NMRI mice weighing 16-18 g. The animals develop hypersensitivity of the innervated paw caused by the damaged nerve, which hypersensitivity is quantified, following a recovery phase of one week, over a period of approximately three weeks by means of a cold metal plate (temperature 4° C.) (cold allodynia). The animals are observed on this plate over a period of 2 min and the withdrawal reactions of the damaged paw are counted. Based on the pre-value prior to the application of the substance, the substance's effect over a certain period of time is determined at various points in time (for example 15, 30, 45, or 60 min following application) and the resultant area under the curve (AUC) and/or the inhibition of cold allodynia at the individual measuring points is/are expressed as a percentage effect relative to the vehicle control (AUC) or to the starting value (individual measuring points). The group size is n=10, the significance of an antiallodynic effect (*=p<0.05) is determined with the aid of an analysis of variance with repeated measures and Bonferroni post hoc analysis.
CClm=Bennet model in mice

hVR1 [1] = target: T1, hVR1 (Homo sapiens, UniProt Q8NER1); assay: Functional test on human VR1, NADA (N-arachidonoyl dopamine) stimulus; format: cell-based, human being; design: key to Ki (human being) NADA: agonist / partial agonist / no effect: AG=agonist; pAG=partial agonist; NE=no effect; details: for Ki: includes values given in brackets after pAG, read-out: Ki (human being) [nM] NADA
T1 construct: expressed in transfected cells; host or cells: CHO K1 cells (ECACC), stably transfected
From the text: II. Functional Tests Carried Out on the Vanilloid Receptor (VR1)
The agonistic or antagonistic effect of the substances to be tested on the vanilloid receptor 1 (VR1) can also be determined using the following assay. In this assay, the influx of Ca^2+ through the channel is quantified with the aid of a Ca^2+-sensitive dye (type Fluo-4, Molecular Probes Europe BV, Leiden, the Netherlands) in a fluorescent imaging plate reader (FLIPR, Molecular Devices, Sunnyvale, USA).
Chinese hamster ovary cells (CHO K1 cells, European Collection of Cell Cultures (ECACC) United Kingdom) are stably transfected with the VR1 gene. For functional testing, these cells are plated out on poly-D-lysine-coated black 96-well plates having a clear base (BD Biosciences, Heidelberg, Germany) at a density of 25,000 cells/well. The cells are incubated overnight at 37° C. and 5% CO2 in a culture medium (Ham's F12 nutrient mixture, 10% by volume of FCS (foetal calf serum), 18 μg/ml of L-proline). The next day the cells are incubated with Fluo-4 (Fluo-4 2 μM, 0.01% by volume of Pluronic F127, Molecular Probes in HBSS (Hank's buffered saline solution), Gibco Invitrogen GmbH, Karlsruhe, Germany) for 30 minutes at 37° C. Subsequently, the plates are washed three times with HBSS buffer and after further incubation for 15 minutes at RT used for Ca^2+ measurement in a FLIPR assay. The Ca^2+-dependent fluorescence is measured before and after the addition of the substances to be tested (λex wavelength=488 nm, λem=540 nm). Quantification is carried out by measuring the highest fluorescence intensity (FC, fluorescence counts) over time.
The FLIPR protocol consists of 2 substance additions. First the compounds to be tested (10 μM) are pipetted onto the cells and the Ca^2+ influx is compared with the control (capsaicin 10 μM) (% activation based on the Ca^2+ signal after the addition of 10 μM of capsaicin). […]
Desensitising agonists and antagonists led to suppression of the Ca^2+ influx. The % inhibition is calculated compared to the maximum achievable inhibition with 10 μM of capsaicin.
Starting from the percentage displacement caused by different concentrations of the compounds to be tested of general formula I, IC50 inhibitory concentrations which cause a 50-per cent displacement of capsaicin were calculated. Ki values for the test substances were obtained by conversion by means of the Cheng-Prusoff equation (Cheng, Prusoff; Biochem. Pharmacol. 22, 3099-3108, 1973).
NADA=N-arachidonoyl dopamine

hVR1 [2] = target: T1, hVR1; assay: Functional test on hVR1 after pH stimulus; format: cell-based, human being; design: key to IC50 (human being) hVR1, pH: agonist / partial agonist / no effect: AG=agonist; pAG=partial agonist; NE=no effect; details: for inhibition at 10 µM: read-out: IC50 (human being) hVR1, pH: inhibition (as a percentage)
hVR1 [3] = target: T1, hVR1; assay: Functional test on human VR1, 45° C. stimulus; format: cell-based, human being; design: key to IC50 (human being), 45° C.: agonist / partial agonist / no effect: AG=agonist; pAG=partial agonist; NE=no effect

T1 sequence (Q8NER1 whole entry): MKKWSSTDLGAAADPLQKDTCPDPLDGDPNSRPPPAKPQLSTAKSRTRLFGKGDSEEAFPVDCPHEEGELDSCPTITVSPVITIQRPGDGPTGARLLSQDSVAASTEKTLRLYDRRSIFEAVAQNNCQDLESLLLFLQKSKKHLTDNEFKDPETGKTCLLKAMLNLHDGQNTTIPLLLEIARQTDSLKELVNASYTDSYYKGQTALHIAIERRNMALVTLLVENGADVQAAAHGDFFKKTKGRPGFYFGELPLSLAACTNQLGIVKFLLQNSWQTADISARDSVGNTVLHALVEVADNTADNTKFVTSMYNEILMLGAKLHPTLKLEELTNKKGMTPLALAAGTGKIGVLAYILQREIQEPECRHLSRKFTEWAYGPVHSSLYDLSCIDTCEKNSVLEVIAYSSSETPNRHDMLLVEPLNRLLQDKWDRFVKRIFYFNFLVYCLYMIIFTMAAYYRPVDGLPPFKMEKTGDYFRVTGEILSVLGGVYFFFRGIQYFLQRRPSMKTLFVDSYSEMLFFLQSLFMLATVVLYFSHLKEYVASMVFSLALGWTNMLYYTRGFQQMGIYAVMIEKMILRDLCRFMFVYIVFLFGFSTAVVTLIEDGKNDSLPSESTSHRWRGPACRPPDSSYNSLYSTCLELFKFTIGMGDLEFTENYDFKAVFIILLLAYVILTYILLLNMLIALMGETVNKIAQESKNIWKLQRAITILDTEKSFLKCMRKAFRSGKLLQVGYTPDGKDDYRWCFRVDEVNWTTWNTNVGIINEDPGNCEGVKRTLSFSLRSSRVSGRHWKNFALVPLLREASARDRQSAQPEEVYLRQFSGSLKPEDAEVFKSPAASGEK

SMILES | CClm (Bennett model, percentage effect on cold allodynia) (NMRI mice; 0.1 iv) | Ki (human being) NADA: agonist / partial agonist / no effect (hVR1 [1]) | inhibition at 10 µM (hVR1 [2]) [%] | IC50 (human being), 45° C.: agonist / partial agonist / no effect (hVR1 [3]) | Ki (hVR1 [1]) [nM] | IC50 (human being) hVR1, pH: agonist / partial agonist / no effect (hVR1 [2]) | CClm (Bennett model, percentage effect on cold allodynia) (NMRI mice; 1 iv) | IC50 (hVR1 [3]; read-out: IC50 (human being) [nM], 45° C.) [nM] | CClm (Bennett model, percentage effect on cold allodynia) (NMRI mice; 1 po)
CC(C(=O)NCc1cc(C(C)(C)C)nn1-c1cccc(Cl)c1)c1ccc2c(c1)OCO2 (centres unmarked) [Example 11, 2-(benzo[d][1,3]dioxol-5-yl)-N-((3-tert-butyl-1-(3-chlorophenyl)-1H-pyrazol-5-yl)methyl)propanamide] | CClm 77% | pAG | 36 | pAG | – | – | – | – | –
CC(C(=O)NCc1cc(C(C)(C)C)nn1-c1cccc(Cl)c1)c1ccc2c(c1)OCCO2 (centres unmarked) [Example 13, N-((3-tert-butyl-1-(3-chlorophenyl)-1H-pyrazol-5-yl)methyl)-2-(2,3-dihydrobenzo[b][1,4]dioxin-6-yl)propanamide] | CClm 85% | pAG | 49 | pAG | 4.3 | – | – | – | –
Cc1nc2ccc(C(C)C(=O)NCc3cc(C(F)(F)F)nn3-c3cccc(Cl)c3)cc2s1 (centres unmarked) [Example 45, N-((1-(3-chlorophenyl)-3-(trifluoromethyl)-1H-pyrazol-5-yl)methyl)-2-(2-methylbenzo[d]thiazol-6-yl)propanamide] | – | pAG | – | – | 11.8 | – | – | – | –
CC(C(=O)NCc1cc(C(F)(F)F)nn1-c1cccc(Cl)c1)c1ccc2cc(O)ccc2c1 (centres unmarked) [Example 50, N-((1-(3-chlorophenyl)-3-(trifluoromethyl)-1H-pyrazol-5-yl)methyl)-2-(6-hydroxynaphthalen-2-yl)propanamide] | CClm 83% | – | – | pAG | – | pAG | – | – | –
CC(C(=O)NCc1cc(C(F)(F)F)nn1-c1cccc(Cl)c1)c1cccc2cnccc12 (centres unmarked) [Example 64, N-((1-(3-chlorophenyl)-3-(trifluoromethyl)-1H-pyrazol-5-yl)methyl)-2-(isoquinolin-5-yl)propanamide] | – | – | – | – | 0.02 | – | CClm 62% | 357 | –
CC(C)(C)c1cc(CNC(=O)Nc2ccc3c(c2)CCC3)n(-c2cccc(Cl)c2)n1 [Example 79, 1-((3-tert-butyl-1-(3-chlorophenyl)-1H-pyrazol-5-yl)methyl)-3-(2,3-dihydro-1H-inden-5-yl)urea] | – | – | 21 | – | 12.6 | – | – | – | CClm 70%
